Results from patent publication US20020132809A1, “Heterocyclic carboxamide derivatives as inhibitors of nitric oxide production” (Fujisawa Pharmaceutical Co. Ltd., priority 1998, published 2002).

Row | SMILES | melting point
1 | Cn1c(-c2ccc(-c3ccccc3)cc2)cnc1[C@H](Cc1ccccn1)N(C=O)c1cc2cc(Br)ccc2o1 [Compound (b), (1S)-N-[1-[5-(4-biphenylyl)-1-methylimidazol-2-yl]-2-(2-pyridyl)ethyl](5-bromobenzo[b]furan-2-yl)formamide] | 180.5 to 181.5 °C
2 | COc1ccc2oc(N(C=O)[C@@H](Cc3ccccn3)c3ncc(-c4ccc(-n5ccnc5)cc4)n3C)cc2c1 [Example 51, (1S)-N-[1-[5-[4-(1-Imidazolyl)phenyl]-1-methylimidazol-2-yl]-2-(2-pyridyl)ethyl](5-methoxybenzo[b]furan-2-yl)formamide] | 151 to 153 °C
3 | Cn1c(-c2ccc(-n3ccnc3)cc2)cnc1[C@H](Cc1ccccn1)N(C=O)c1cc2cc(C=O)ccc2o1 [Example 24, (1S)-(5-Formylbenzo[b]furan-2-yl)-N-[1-[5-[4-(1-imidazolyl)-phenyl]-1-methylimidazol-2-yl]-2-(2-pyridyl)ethyl]formamide] | 194 to 197 °C
4 | Cc1nccn1-c1ccc(-c2cnc([C@H](Cc3ccccn3)N(C=O)c3cc4ccccc4[nH]3)n2C)cc1 [Example 14, (1S)-(Indol-2-yl)-N-[1-[1-methyl-5-[4-(2-methylimidazol-1-yl)-phenyl]imidazol-2-yl]-2-(2-pyridyl)ethyl]formamide] | 207 to 211 °C
5 | Cn1c(-c2ccc(-c3ccco3)cc2)cnc1[C@H](Cc1ccccn1)N(C=O)c1cc2cc(Cl)ccc2o1 [Example 16, (1S)-(5-Chlorobenzo[b]furan-2-yl)-N-[1-[5-[4-(2-furyl)phenyl]-1-methylimidazol-2-yl]-2-(2-pyridyl)ethyl]formamide] | 144 to 146 °C
6 | Cn1c(-c2ccc(-c3nccs3)cc2)cnc1[C@H](Cc1ccccn1)N(C=O)c1cc2cc(Cl)ccc2o1 [Example 18, (1S)-(5-Chlorobenzo[b]furan-2-yl)-N-[1-[1-methyl-5-[4-(2-thiazolyl)phenyl]imidazol-2-yl]-2-(2-pyridyl)ethyl]formamide] | 144 to 146 °C
7 | CCn1c(-c2ccc(-n3ccnc3)cc2)cnc1[C@H](Cc1ccccn1)N(C=O)c1cc2cc(Cl)ccc2o1.Cl.Cl.Cl | 198 to 203 °C
8 | Cn1c(-c2ccc(-n3ccnc3)cc2)cnc1[C@H](Cc1ccccn1)N(C=O)c1cc2cc(C#N)ccc2o1 [Example 25, (1S)-(5-Cyanobenzo[b]furan-2-yl)-N-[1-[5-[4-(1-imidazolyl)-phenyl]-1-methylimidazol-2-yl]-2-(2-pyridyl)ethyl]formamide] | 174 to 176 °C
9 | Cn1c(-c2ccc([N+](=O)[O-])cc2)cnc1[C@H](Cc1ccccn1)N(C=O)c1cc2ccccc2o1 [Example 64, (1S)-(Benzo[b]furan-2-yl)-N-[1-[1-methyl-5-(4-nitrophenyl)imidazol-2-yl]-2-(2-pyridyl)ethyl]formamide] | 103 to 104 °C
10 | Cn1c(-c2ccc(-c3ccccc3)cc2)cnc1[C@H](Cc1ccccn1)N(C=O)c1cc2cc(Cl)ccc2o1 [Example 10, (1S)-N-[1-[5-(4-Biphenylyl)-1-methylimidazol-2-yl]-2-(2-pyridyl)-ethyl](5-chlorobenzo[b]furan-2-yl)formamide] | 171 to 174 °C
11 | Cn1c(-c2ccc(-c3cccs3)cc2)cnc1[C@H](Cc1ccccn1)N(C=O)c1cc2cc(Cl)ccc2o1 [Example 17, (1S)-(5-Chlorobenzo[b]furan-2-yl)-N-[1-[1-methyl-5-[4-(2-thienyl)-phenyl]imidazol-2-yl]-2-(2-pyridyl)ethyl]formamide] | 110 to 114 °C
12 | Cn1c(-c2ccc(-n3ccnc3)cc2)cnc1[C@H](Cc1ccccn1)N(C=O)c1cc2ccc(Cl)cc2o1 [Example 11, (1S)-(6-Chlorobenzo[b]furan-2-yl)-N-[1-[5-[4-(1-imidazolyl)-phenyl]-1-methylimidazol-2-yl]-2-(2-pyridyl)ethyl]formamide] | 165 to 169 °C
13 | CCCn1c(-c2ccc(-n3ccnc3)cc2)cnc1[C@H](Cc1ccncc1)n1c(NC=O)cc2ccccc21 [Example 52, (1S)-N-[1-[5-[4-(1-Imidazolyl)phenyl]-1-propylimidazol-2-yl]-2-(4-pyridyl)ethyl](indol-2-yl) formamide] | 238 to 240 °C (dec.)
14 | Cn1c(-c2ccc(-n3ccnc3)cc2)cnc1[C@H](Cc1ccccn1)N(C=O)c1cc2cc(Br)ccc2o1 [Example 46, (1S)-(5-Bromobenzo[b]furan-2-yl)-N-[1-[5-[4-(1-imidazolyl)-phenyl]-1-methylimidazol-2-yl]-2-(2-pyridyl)ethyl]formamide] | 197 to 199 °C
15 | Cn1c(-c2ccc(N3CCOCC3)cc2)cnc1[C@H](Cc1ccccn1)N(C=O)c1cc2cc(Br)ccc2o1 [Example 2, (1S)-(5-Bromobenzo[b]furan-2-yl)-N-[1-[1-methyl-5-(4-morpholinophenyl)imidazol-2-yl]-2-(2-pyridyl)ethyl]formamide] | 173 to 174 °C
16 | Cn1c(-c2ccc([N+](=O)[O-])cc2)cnc1[C@H](Cc1ccccn1)N(C=O)c1cc2cc(Cl)ccc2o1 [Example 12, (1S)-(5-Chlorobenzo[b]furan-2-yl)-N-[1-[1-methyl-5-(4-nitrophenyl)imidazol-2-yl]-2-(2-pyridyl)ethyl]formamide] | 199 to 201 °C
17 | Cn1c(-c2ccc(-n3ccnc3)cc2)cnc1[C@H](Cc1ccccn1)N(C=O)c1cc2cccnc2o1 [Example 27, (1S)-(Furo[2,3-b]pyridin-2-yl)-N-[1-[5-[4-(1-imidazolyl)phenyl]-1-methylimidazol-2-yl]-2-(2-pyridyl)ethyl]formamide] | 108 to 110 °C
18 | Cn1c(-c2cccs2)cnc1[C@H](Cc1ccccn1)N(C=O)c1cc2cc(Cl)ccc2o1 [Example 20, (1S)-(5-Chlorobenzo[b]furan-2-yl)-N-[1-[1-methyl-5-(2-thienyl)-imidazol-2-yl]-2-(2-pyridyl)ethyl]formamide] | 70 to 74 °C
19 | COc1ccc2oc(N(C=O)[C@@H](Cc3ccccn3)c3ncc(-c4ccc(N5CCOCC5)cc4)n3C)cc2c1 [Example 3, (1S)-(5-Methoxybenzo[b]furan-2-yl)-N-[1-[1-methyl-5-(4-morpholinophenyl)imidazol-2-yl]-2-(2-pyridyl)ethyl]formamide] | 122 to 124 °C
20 | Cn1c(-c2ccc(-n3ccnc3)cc2)cnc1[C@H](Cc1ccccn1)N(C=O)c1cc2cccc(Cl)c2o1 [Example 68, (1S)-(7-Chlorobenzo[b]furan-2-yl)-N-[1-[5-[4-(1-imidazolyl)phenyl]-1-methylimidazol-2-yl]-2-(2-pyridyl)ethyl]formamide] | 182 to 184 °C

Results, then the compound that gave them:

Row | melting point | SMILES
21 | 192 to 194 °C | Cn1c(-c2ccc([N+](=O)[O-])cc2)cnc1[C@H](Cc1ccccn1)N(C=O)c1cc2cc(C(F)(F)F)ccc2o1 [Example 39, (1S)-N-[1-[1-Methyl-5-(4-nitrophenyl)imidazol-2-yl]-2-(2-pyridyl)-ethyl][5-(trifluoromethyl)benzo[b]furan-2-yl]formamide]
22 | 63 to 73 °C | Cn1c(-c2ccc(-n3ccnc3)cc2)cnc1[C@H](Cc1ccccn1)N(C=O)c1cc2cc(Cl)ccc2o1 [Example 49, (1S)-(5-Chlorobenzo[b]furan-2-yl)-N-[1-[5-[4-(1-imidazolyl)-phenyl]-1-methylimidazol-2-yl]-2-(2-pyridyl)ethyl]formamide]
23 | 167 to 171 °C | Cc1nccn1-c1ccc(-c2cnc([C@H](Cc3ccccn3)N(C=O)c3cc4ccccc4o3)n2C)cc1 [Example 15, (1S)-(Benzo[b]furan-2-yl)-N-[1-[1-methyl-5-[4-(2-methylimidazol-1-yl)phenyl]imidazol-2-yl]-2-(2-pyridyl)ethyl]formamide]
24 | 125 to 127 °C | Cc1ccc2oc(N(C=O)[C@@H](Cc3ccccn3)c3ncc(-c4ccc(N5CCOCC5)cc4)n3C)cc2c1 [Example 5, (1S)-(5-Methylbenzo[b]furan-2-yl)-N-[1-[1-methyl-5-(4-morpholinophenyl)imidazol-2-yl]-2-(2-pyridyl)ethyl]formamide]
25 | 228 to 231 °C | Cn1c(-c2ccc(-n3ccnc3)cc2)cnc1[C@H](Cc1ccccn1)N(C=O)c1cc2cc([N+](=O)[O-])ccc2s1 [Compound (d), (1S)-N-[1-[5-[4-(1-imidazolyl)phenyl]-1-methylimidazol-2-yl]-2-(2-pyridyl)ethyl](5-nitrobenzo[b]thiophen-2-yl)formamide]
26 | 175 to 180 °C | Cn1c(-c2ccc(-c3ccccn3)cc2)cnc1[C@H](Cc1ccccn1)N(C=O)c1cc2cc(Cl)ccc2o1 [Example 36, (1S)-(5-Chlorobenzo[b]furan-2-yl)-N-[1-[1-methyl-5-[4-(2-pyridyl)-phenyl]imidazol-2-yl]-2-(2-pyridyl)ethyl]formamide]
27 | 255 to 260 °C (dec.) | CCn1c(-c2ccc(-n3ccnc3)cc2)cnc1[C@H](Cc1ccncc1)N(C=O)c1cc2ccccc2[nH]1 [Compound (e), (1S)-N-[1-[1-ethyl-5-[4-(1-imidazolyl)phenyl]imidazol-2-yl]-2-(4-pyridyl)ethyl](indol-2-yl)formamide]
28 | 152 to 155 °C | Cn1c(-c2ccc(-n3cnc4ccccc43)cc2)cnc1[C@H](Cc1ccccn1)N(C=O)c1cc2ccccc2o1 [Example 32, (1S)-N-[1-[5-[4-(1-Benzimidazolyl)phenyl]-1-methylimidazol-2-yl]-2-(2-pyridyl)ethyl](benzo[b]furan-2-yl)formamide]
29 | 168 to 171 °C | Cn1c(-c2ccc(-c3cccnc3)cc2)cnc1[C@H](Cc1ccccn1)N(C=O)c1cc2cc(Br)ccc2o1 [Example 35, (1S)-(5-Bromobenzo[b]furan-2-yl)-N-[1-[1-methyl-5-[4-(3-pyridyl)-phenyl]imidazol-2-yl]-2-(2-pyridyl)ethyl]formamide]
30 | 190 to 193 °C | Cn1c(-c2ccc(-n3ccnc3)cc2)cnc1[C@H](Cc1ccccn1)N(C=O)c1cc2ccccc2s1 [Compound (c), (1S)-(benzo[b]thiophen-2-yl)-N-[1-[5-[4-(1-imidazolyl) -phenyl]-1-methylimidazol-2-yl]-2-(2-pyridyl)ethyl]formamide]
31 | 165 to 167 °C | Cn1c(-c2ccc(-c3cncs3)cc2)cnc1[C@H](Cc1ccccn1)N(C=O)c1cc2cc(Cl)ccc2o1 [Example 38, (1S)-(5-Chlorobenzo[b]furan-2-yl)-N-[1-[1-methyl-5-[4-(5-thiazolyl)phenyl]imidazol-2-yl]-2-(2-pyridyl)ethyl]formamide]
